Test [1] relates to Z. mobilis cells. Kind of test: chromate assay for ethanol production by untreated and AI-2-treated Z. mobilis cells. In kind it is cell-based, Zymomonas mobilis. The source says: The two overproduced cytosolic proteins were identified as enolase, ZMO1608, and pyruvate decarboxylase, ZMO1360 as illustrated in FIG. 2. These are sequential enzymes in the E-D pathway that leads to ethanol production. […] A chromate assay (e.g. 3C2H5OH+4Cr03−>2Cr2O3+3H2O) was used to asses ethanol production, monitoring colour change (e.g. at 600 nm) to determine the ethanol produced.

The subject of test [2] is Z. mobilis. The test can be described thus: overproduction of proteins in Z. mobilis in response to autoinducer (identified by mass spectrometry). It is filed as cell-based, Zymomonas mobilis. The conditions noted are these: AI-2 produced in vitro with purified enzymes; 2 cytoplasmic and 3 secreted proteins. The text has this: […] Nature 437, […]) to avoid the toxic effects of bacteriocin production, it stimulated Z. mobilis to overproduce at least 5 proteins, 2 which were retained in the cytoplasm and 3 that were secreted. These proteins were not produced when Z. mobilis was co-cultured with the luxS-deletion strain KX1128, which lacks the LuxS enzyme that is responsible for the synthesis of 4,5-dihydroxy-2,3-pentanedione (DPD) from S-ribosylhomocysteine, which spontaneously cyclizes to form the autoinducer molecule Autoinducer-2 (AI-2).
The proteins overproduced in response to AI-2 were identified by mass spectrometry sequencing of tryptic-fragments. The first of the secreted proteins, ZMO1147, was identified as a homologue of the E. coli periplasmic chaperone Skp/HIpA (Walton, T A and Sousa M C (2004) Crystal structure of Skp, a prefoldin-like chaperone that protects soluble and membrane proteins from aggregation. Mol Cell. 15, 367-74). […] In E.coli the yaeT and hlpA genes are clustered. In Z. mobilis, ZMO1147 is clearly transcriptionally linked to ZMO1148, a homologue of yaeT, being directly downstream of ZMO1148, so that they share the same promoter. Consequently, both ZMO1147 and ZMO1148 must be induced by AI-2. […] Clearly, ZMO1147 must have a role above and beyond acting as a periplasmic chaperone. […]

With Autoinducer-2 [AI-2], the medium ethanol concentration in test [1] (AI-2-treated Z. mobilis, untreated 9%, FIG. 3) is 14.2%. Moreover, in test [1] (AI-2-treated vs untreated Z. mobilis cells), the “ethanol production (in words)” value was “significant increase in ethanol production”. The “increase in ethanol production” value in test [1] (AI-2-treated vs untreated Z. mobilis, average of two experiments, chromate assay, colour change at 600 nm) is reported as 54%. Also, in test [2], the “protein overproduction in Z. mobilis (in words)” value is listed as “over production of the same five proteins”.

For the origin of these results see patent US8163526B2, “Ethanol production” (The University of Durham, priority 2006, dated 2012).
